# Data: patent US20040220164A1, “Triaza compound immunoregulatory agents” (priority 2001, published 2004)
# pIC50: −log10 of the molar value. Read-outs that look alike come from different tables or passages of the source.
# Tests used:
# [1] = test system: CD28; assay: Cell surface antigen expression by flow cytometry (Table 2); format: cell-based, human; conditions: CADA 16 μM, 4 days, percentage of positive cells, unit not given
# Experimental: (§1) Expression of various other surface antigens was also examined in MT-4 cells, SupT1 cells and PBMCs after incubation with CADA (16 μM) or CADA-free medium at 37° C. for 4 days. After washing with phosphate-buffered saline (PBS) containing 2% FCS(fetal calf serum), the cells were incubated with mAb (as indicated in Table 1) for 20 min at 4° C. Then the cells were washed, fixed with 1% formaldehyde and analyzed by flow cytometry. All mAbs were purchased from Becton-Dickinson (Erembodegem, Belgium).
# [2] = test system: CD57; assay: as above; format: cell-based, human; conditions: CADA 16 μM, 4 days, percentage of positive cells, unit not given
# Experimental: as §1
# [3] = test system: HLA-DR; assay: as above; format: cell-based, human; conditions: CADA 16 μM, 4 days, percentage of positive cells, unit not given
# Experimental: as §1
# [4] = test system: CD8; assay: as above; format: cell-based, human; conditions: CADA 16 μM, 4 days, percentage of positive cells, unit not given
# Experimental: as §1
# [5] = test system: CD3; assay: as above; format: cell-based, human; conditions: CADA 16 μM, 4 days, percentage of positive cells, unit not given
# Experimental: as §1
# [6] = test system: CD25; assay: as above; format: cell-based, human; conditions: CADA 16 μM, 4 days, percentage of positive cells, unit not given
# Experimental: as §1
# [7] = test system: CD5; assay: as above; format: cell-based, human; conditions: CADA 16 μM, 4 days, percentage of positive cells, unit not given
# Experimental: as §1
# [8] = test system: CD38; assay: as above; format: cell-based, human; conditions: CADA 16 μM, 4 days, percentage of positive cells, unit not given
# Experimental: as §1
# [9] = test system: TCRα/β; assay: as above; format: cell-based, human; conditions: CADA 16 μM, 4 days, percentage of positive cells, unit not given
# Experimental: as §1
# [10] = test system: CD71; assay: as above; format: cell-based, human; conditions: CADA 16 μM, 4 days, percentage of positive cells, unit not given
# Experimental: as §1
# [11] = test system: CD2; assay: as above; format: cell-based, human; conditions: CADA 16 μM, 4 days, percentage of positive cells, unit not given
# Experimental: as §1
# [12] = test system: CD45; assay: as above; format: cell-based, human; conditions: CADA 16 μM, 4 days, percentage of positive cells, unit not given
# Experimental: as §1
# [13] = test system: HHV-7 (KHR strain); assay: Anti-HHV-7 assay (HHV-7 antigen expression, flow cytometry, day 12); format: cell-based
# Experimental: The antiviral activity of CADA against HIV-1 and RHV-7 was investigated. PBMCs and […] cell-depleted PBMCs (removed with CD8 magnetic beads; Dynal AS, Oslo, Norway), previously activated with purified PHA (2 μg/ml) and rhIL-2 (1 ng/ml) for 3 days, were pelleted and exposed to HIV-1 (1 ng p24 Ag per 10^6 cells) for 2 hours at 370C. Then the cells were washed three times with warm medium and cultured in complete medium containing rhIL-2 (1 ng/ml) in the presence or absence of different concentrations of CADA hydrochloride. The anti-HIV-1 assays were also performed in MT-4 and SupT1 cells. CADA hydrochloride was diluted in the plates, then the MT-4 cells or SupT1 cells were added and finally the T-tropic HIV-1 strains. The supernatant was collected at day 5 for MT-4 cells, day 8 for SupT1 cells and day 12 for PBMCs, and stored at −20° C. and analyzed for HIV-1 core antigen by p24 Ag ELISA (NEN, Brussels, Belgium). The SupT1 cells were refreshed on day 4, and half of the medium and cells were replaced and fresh CADA-free medium was added. For the PBMCs, fresh culture medium was added at day 6 containing rhIL-2 (but no CADA). For the anti-HHV-7 assays in PBMCs, CADA hydrochloride was diluted in a plate, 2×10˜cells were added and then HHV-7 (KHR strain) was added in complete medium containing rhIL-2 (1 ng/ml). Fresh culture medium was added again at day 6 containing rhIL-2 (but no CADA). The same infection protocol was used for the SupT1 cells, but without rhIL-2. The SupT1 cells were refreshed on day 4 and day 8, half of the medium and the cells were replaced, and fresh medium without CADA was added. The HHV-7 antigen expression was monitored (at day 12) with a specific mAb to HHV-7 (RK-4) (Advanced Biotechnologies, Columbia, Md.) by flow cytometry, as described previously (Thang, Y., et al., Antiviral Res. 43:23-35 (1999)).
# [14] = molecular target: CD4 (Homo sapiens, UniProt P01730); assay: Quantification of the CD4 receptor by antibody binding; format: cell-based; parameters: endogenous in cells; the paragraph deals with MT-4, SupT1 cells and PBMCs; conditions: after treatment with CADA
# Experimental: Table 4 presents the results for MT-4 cells pretreated with CADA for 1 day at 8.1 μM and then infected with the HIV-1 strain NL4.3 or RF in the presence or absence of CADA. […] As three CD4 binding events are needed to efficiently activate HIV-1 Env trimers (Layne, S. P., et al., Nature 346: 602-605 (1990)), multimeric CD4 binding is required for HIV infection, further confirming that receptor density plays a crucial role in the efficiency of viral infectivity (Platt, E. J., et al., J. Virol. 71: 883-890 (1997)). […] Primary HIV isolates seem to be much more dependent on the level of CD4 expression (Kabat; D., et al., J. Virol. 68:2570-2577 (1994)). […] Although CD4-independent viruses are described (Hofflian, T. L., et al., Proc. Natl. Acad. Sci. U.S.A. 96: 63 59-6364 (1999)), these are much more sensitive to neutralization by antibodies, which explains the rarity of CD4-independent wild-type HIV variants (Kolchinski, P., et al., J. Virol. 75: 204 1-2050 (2001)).
smiles,measurement,setting,value
C=C1CN(S(=O)(=O)c2ccc(C)cc2)CCCN(Cc2ccccc2)CCCN(S(=O)(=O)c2ccc(C)cc2)C1 [CADA],CD28 cell surface antigen expression,[1]; MT-4 T-cells,6.6
same,CD28 cell surface antigen expression,[1]; PBMCs,89.6
same,CD28 cell surface antigen expression,[1]; SupT1 T-cells,90.8
same,CD57 cell surface antigen expression,[2]; MT-4 T-cells,1.5
same,CD57 cell surface antigen expression,[2]; PBMCs,2.3
same,CD57 cell surface antigen expression,[2]; SupT1 T-cells,82.4
same,HLA-DR cell surface antigen expression,[3]; MT-4 T-cells,98.7
same,HLA-DR cell surface antigen expression,[3]; PBMCs,27
same,HLA-DR cell surface antigen expression,[3]; SupT1 T-cells,1.7
same,CD8 cell surface antigen expression,[4]; MT-4 T-cells,3.5
same,CD8 cell surface antigen expression,[4]; PBMCs,25.1
same,CD8 cell surface antigen expression,[4]; SupT1 T-cells,92.3
same,CD3 cell surface antigen expression,[5]; MT-4 T-cells,5.9
same,CD3 cell surface antigen expression,[5]; PBMCs,89.4
same,CD3 cell surface antigen expression,[5]; SupT1 T-cells,2.7
same,CD25 cell surface antigen expression,[6]; MT-4 T-cells,93.3
same,CD25 cell surface antigen expression,[6]; PBMCs,35.5
same,CD25 cell surface antigen expression,[6]; SupT1 T-cells,1
same,CD5 cell surface antigen expression,[7]; MT-4 T-cells,99.1
same,CD5 cell surface antigen expression,[7]; PBMCs,80.6
same,CD5 cell surface antigen expression,[7]; SupT1 T-cells,93.9
same,CD38 cell surface antigen expression,[8]; MT-4 T-cells,84.5
same,CD38 cell surface antigen expression,[8]; PBMCs,73.2
same,CD38 cell surface antigen expression,[8]; SupT1 T-cells,99.1
same,TCRα/β cell surface antigen expression,[9]; MT-4 T-cells,1.1
same,TCRα/β cell surface antigen expression,[9]; PBMCs,82.3
same,TCRα/β cell surface antigen expression,[9]; SupT1 T-cells,1.6
same,CD71 cell surface antigen expression,[10]; MT-4 T-cells,98.8
same,CD71 cell surface antigen expression,[10]; PBMCs,27.6
same,CD71 cell surface antigen expression,[10]; SupT1 T-cells,33.9
same,CD2 cell surface antigen expression,[11]; MT-4 T-cells,2.6
same,CD2 cell surface antigen expression,[11]; PBMCs,90.7
same,CD2 cell surface antigen expression,[11]; SupT1 T-cells,0.5
same,CD45 cell surface antigen expression,[12]; MT-4 T-cells,3.57
same,CD45 cell surface antigen expression,[12]; PBMCs,98.3
same,CD45 cell surface antigen expression,[12]; SupT1 T-cells,99.6
same,pIC50,"[13]; PBMC, CD8+ depleted PBMC, read-out: IC50 against HHV-7",6.05
same,pIC50,"[13]; PBMC, read-out: IC50 against HHV-7",5.82
same,pIC50,"[13]; SUP-T1, SupT1 cells, PBMCs and CD8+ T-cell depleted PBMCs, read-out: inhibitory concentration (IC50) for HHV-7, range over cell types",5.82 to 6.52
same,pIC50,"[13]; SUP-T1, SupT1 cells, read-out: IC50 against HHV-7",6.52
same,amount of CD4 Ab bound to the cells,[14],"approximately 5,000 /cell"
same,decrease in bound antibody,[14],~90%
